Experimental data as given in patent US6054556A, “Melanocortin receptor antagonists and agonists” (The Arizona Board of Regents on Behalf of the University of …, priority 1997, dated 2000).
Entries after “also recorded” stand apart in the source; their conditions may differ. Where a SMILES comes first, the peptide text is derived from it. Bridges are numbered along the chain shown (N, C = ends). [ ]: non-standard residue; d: D form. 2Nal = N[C@@H](Cc1ccc2ccccc2c1)C(=O)O; d2Nal = N[C@H](Cc1ccc2ccccc2c1)C(=O)O; Nle = CCCC[C@H](N)C(=O)O

How the values were obtained:
Assay type in all cases: cell-based
[1] = test system: frog (Rana pipiens) skin; test: Frog skin bioassay (skin darkening, photoreflectance); details: for Frog Skin: agonist/antagonist activity: melanin dispersion vs α-MSH
Method: Bioassays were performed on frog (Rana pipiens) skin according to published protocols [see J. Med. Chem. 30:2126 (1987) and Gen. Comp. Endocrinol. 55:104 (1984)]. Briefly, in these assays the darkening of skin due to dispersion of melanin granules within the melanocytes in response to the melanotropin peptides according to the present invention is measured by photoreflectance methods. The agonist potency of each peptide was determined from the dose response curves comparing the skin darkening with that produced by the native hormone, α-MSH. Prolongation of the biological response was measured by continued monitoring of the melanosome dispersion for up to 3 hours following removal of the peptide in the bathing solution through washing of the skins. The antagonistic activity profile was measured by pre-incubating the skins for 1 hour in various concentrations of the antagonist. After pre-incubation, a known concentration of α-MSH was added and its melanotropic activity determined. Dose-response curves generated for α-MSH in this manner were used to determine the pA2 values (representing the -log10 of the average molar concentration of the antagonist that will reduce the response of α-MSH (agonist) from 2X units to X units) [see Br. J. Pharmacol. 2:189 (1947)].

[2] = biological target: T1, hMC4-R (Homo sapiens, UniProt P32245); test: cAMP-dependent pCRE/β-galactosidase reporter assay in Clonal 293 cells expressing human MC4-R; details: for hMC4-R: agonist/antagonist activity: cAMP/β-galactosidase
T1 construct: expressed in transfected cells
T1 sequence (P32245 whole entry): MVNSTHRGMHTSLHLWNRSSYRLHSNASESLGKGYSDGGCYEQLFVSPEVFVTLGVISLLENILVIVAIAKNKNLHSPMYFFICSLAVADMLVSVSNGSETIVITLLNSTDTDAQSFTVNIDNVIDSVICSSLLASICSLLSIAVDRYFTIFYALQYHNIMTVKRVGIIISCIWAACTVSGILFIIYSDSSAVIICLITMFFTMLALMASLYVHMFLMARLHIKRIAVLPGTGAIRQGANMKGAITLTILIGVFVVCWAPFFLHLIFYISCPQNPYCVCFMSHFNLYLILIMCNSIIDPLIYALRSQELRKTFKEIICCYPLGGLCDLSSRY
Method: (§1) The peptides according to the present invention were assayed for agonist and antagonist activity using cloned hMC1, mMC1-R, hMC3-R, hMC4-R and mMC5-R transfected into the stable cell line Clonal 293. Transduction was measured by its affect on cAMP production using the following method.
(§2) Clonal 293 cell lines expressing the human MSH receptor, human MC3-R, human MC4-R, and mouse MC5-R were transfected with a pCRE/β-galactosidase construct using a CaPO4 method [see Mol. Cell. Biol. 7:2745 (1987)]. 4 μg of pCRE/β-galactosidase DNA was used for transfection of a 10 cm dish of cells. After 15 to 24 hours post-transfection, cells were split into 96-well plates with 20,000 to 30,000 cells per well, and incubated at 37° C. in a 5% CO2 incubator until 48 hours post-transfection.Cells were then stimulated with different peptides diluted in stimulation medium (Dulbecco's modified Eagle's medium containing 0.1 mg/ml bovine serum albumin and 0.1 mM isobutylmethylxanthine) for 6 hours. Agonist activity was measured by stimulating cells with various concentrations of peptide, and antagonist activity was measured by stimulating MC3 and MC4 receptor cell lines with […]. After stimulation, cells were lysed in 50 μl lysis buffer (250 mM Tris-HCl, pH 8.0, 0.1% Triton X-100), frozen and thawed, and then assayed for b-galactosidase activity.

[3] = biological target: T2, hMC3-R (Homo sapiens, UniProt P41968); test: cAMP-dependent pCRE/β-galactosidase reporter assay in Clonal 293 cells expressing human MC3-R; details: for hMC3-R: agonist/antagonist activity: cAMP/β-galactosidase
T2 construct: expressed in transfected cells
T2 sequence (P41968 whole entry): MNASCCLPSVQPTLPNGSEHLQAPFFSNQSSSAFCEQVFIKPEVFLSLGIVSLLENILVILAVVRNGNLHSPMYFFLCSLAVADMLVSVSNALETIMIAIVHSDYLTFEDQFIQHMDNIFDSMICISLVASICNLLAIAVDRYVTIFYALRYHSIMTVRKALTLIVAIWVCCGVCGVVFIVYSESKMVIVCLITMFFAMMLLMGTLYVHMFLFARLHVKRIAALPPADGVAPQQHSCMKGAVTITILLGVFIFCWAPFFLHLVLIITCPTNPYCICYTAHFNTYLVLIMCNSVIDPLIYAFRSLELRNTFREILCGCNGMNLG
Method: as §1, §2

[4] = biological target: T3, mMC5-R (Mus musculus, UniProt P41149); test: cAMP-dependent pCRE/β-galactosidase reporter assay in Clonal 293 cells expressing mouse MC5-R; details: for mMC5-R: agonist/antagonist activity: cAMP/β-galactosidase
T3 construct: expressed in transfected cells
T3 sequence (P41149 whole entry): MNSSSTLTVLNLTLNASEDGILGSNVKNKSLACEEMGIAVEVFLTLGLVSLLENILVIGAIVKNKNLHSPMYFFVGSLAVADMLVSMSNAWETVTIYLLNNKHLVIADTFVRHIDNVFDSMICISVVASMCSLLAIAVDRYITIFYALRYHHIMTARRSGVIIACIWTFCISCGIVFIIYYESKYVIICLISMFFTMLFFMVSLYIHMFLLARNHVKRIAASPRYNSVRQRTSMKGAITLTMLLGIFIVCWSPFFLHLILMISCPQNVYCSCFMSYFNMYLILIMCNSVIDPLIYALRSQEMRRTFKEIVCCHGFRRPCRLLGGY
Method: Transduction was measured by its affect on cAMP production using the following method.
as §2, with “4” for “Clonal 293 cell lines expressing the human MSH receptor, human MC3-R, human MC4-R, and mouse MC5-R were transfected with a pCRE/β-galactosidase construct using a CaPO4 method [see Mol. Cell. Biol. 7:2745 (1987)]. 4”

Compound | Frog Skin: reversibility of antagonism [1] | Frog Skin: agonist/antagonist activity [1] | hMC4-R: potency range [2] | hMC4-R: agonist/antagonist activity [2] | hMC3-R: potency range [3] | hMC3-R: agonist/antagonist activity [3] | mMC5-R: potency range [4] | mMC5-R: agonist/antagonist activity [4]
CCCC[C@H](NC(C)=O)C(=O)N[C@H]1CC(=O)NCCCC[C@@H](C(N)=O)NC(=O)[C@H](Cc2ccc3ccccc3c2)NC(=O)[C@H](CCCNC(=N)N)NC(=O)[C@@H](Cc2ccc3ccccc3c2)NC(=O)[C@H](Cc2c[nH]c3ccccc23)NC1=O [Compound 1, Ac-Nle-c[Asp-Trp-D-Nal(2')-Arg-Nal(2')-Lys]-NH2] (Ac-[Nle]DW[d2Nal]R[2Nal]K-NH2; lactam 2-7) | Irreversible | Antagonist | – | – | – | – | – | –
CCCC[C@H](NC(C)=O)C(=O)N[C@H]1CC(=O)NCCCC[C@@H](C(N)=O)NC(=O)[C@H](Cc2ccc3ccccc3c2)NC(=O)[C@H](CCCNC(=N)N)NC(=O)[C@@H](Cc2ccccc2)NC(=O)[C@H](Cc2c[nH]c3ccccc23)NC1=O [Compound 10, Ac-Nle-c[Asp-Trp-D-Phe-Arg-Nal(2')-Lys]-NH2] (Ac-[Nle]DW[dF]R[2Nal]K-NH2; lactam 2-7) | – | potent agonist; also recorded: Full Agonist | – | – | – | – | – | –
CCCC[C@H](NC(C)=O)C(=O)N[C@H]1CC(=O)NCCCC[C@@H](C(N)=O)NC(=O)[C@H](Cc2ccc3ccccc3c2)NC(=O)[C@H](CCCNC(=N)N)NC(=O)[C@@H](Cc2ccc3ccccc3c2)NC(=O)[C@H](Cc2c[nH]cn2)NC1=O [Compound 11, Ac-Nle-c[Asp-His-D-Nal(2')-Arg-Nal(2')-Lys]-NH2] | – | Antagonist -- Partial | – | – | – | – | – | –
CCCC[C@H](NC(C)=O)C(=O)N[C@H]1CC(=O)NCCCC[C@@H](C(N)=O)NC(=O)[C@H](Cc2c[nH]c3ccccc23)NC(=O)[C@H](CCCC)NC(=O)[C@@H](Cc2ccc3ccccc3c2)NC(=O)[C@H](Cc2c[nH]cn2)NC1=O [Compound 13, Ac-Nle-c[Asp-His-D-Nal(2')-Nle-Trp-Lys]-NH2] | – | Agonist | – | – | – | – | – | –
CCCC[C@H](NC(C)=O)C(=O)N[C@H]1CC(=O)NCCCC[C@@H](C(N)=O)NC(=O)[C@H](Cc2c[nH]c3ccccc23)NC(=O)[C@H](CCCC)NC(=O)[C@@H](Cc2ccc3ccccc3c2)NC(=O)[C@H](Cc2c[nH]c3ccccc23)NC1=O [Compound 14, Ac-Nle-c[Asp-Trp-D-Nal(2')-Nle-Trp-Lys]-NH2] (Ac-[Nle]DW[d2Nal][Nle]WK-NH2; lactam 2-7) | – | Antagonist | – | – | – | – | – | –
CCCC[C@H](NC(C)=O)C(=O)N[C@H]1CC(=O)NCCCC[C@@H](C(N)=O)NC(=O)[C@H](Cc2c[nH]c3ccccc23)NC(=O)[C@H](Cc2ccc3ccccc3c2)NC(=O)[C@@H](Cc2ccccc2)NC(=O)[C@H](Cc2c[nH]cn2)NC1=O [Compound 15, Ac-Nle-c[Asp-His-D-Phe-Nal(2')-Trp-Lys]-NH2] | – | Agonism | – | – | – | – | – | –
CCCC[C@H](NC(C)=O)C(=O)N[C@H]1CC(=O)NCCCC[C@@H](C(N)=O)NC(=O)[C@@H](Cc2ccc3ccccc3c2)NC(=O)[C@H](CCCNC(=N)N)NC(=O)[C@@H](Cc2ccc3ccccc3c2)NC(=O)[C@H](Cc2c[nH]cn2)NC1=O [Compound 16, Ac-Nle-c[Asp-His-D-Nal(2')-Arg-D-Nal(2')-Lys]-NH2] | – | Agonism | – | – | – | – | – | –
Ac-Nle-c[Asp-His(1-Me)-D-Nal(2')-Arg-Nal(2')-Lys]-NH2 [Compound 5] | Irreversible | Antagonist | nM range | Antagonist | nM range | Antagonist | pM range | Antagonist
Ac-Nle-c[Asp-His(1-Me)-D-Nal(2')-Arg-Trp-Lys]-NH2 [Compound 2] | Irreversible | Antagonist | nM range | Antagonist | nM range | Antagonist | pM range | Antagonist
Ac-Nle-c[Asp-His(3-Me)-D-Nal(2')-Arg-Nal(2')-Lys]-NH2 [Compound 6] | Irreversible | Antagonist | nM range | Antagonist | nM range | Antagonist | pM range | Antagonist
Ac-Nle-c[Asp-His(3-Me)-D-Nal(2')-Arg-Trp-Lys]-NH2 [Compound 3] | Irreversible | Antagonist | nM range | Antagonist | nM range | Antagonist | pM range | Antagonist
